Like-named read-outs stand apart in the source and are kept apart here.
Columns and labels:
[1] = tested on: rabbit skeletal muscle myosin; experiment: Inhibition of hydrolysis of ATP by rabbit skeletal muscle myosin; format: biochemical
Protocol: The purpose of this test was to evaluate the ability of compounds to inhibit the hydrolysis of ATP by rabbit skeletal muscle myosin. The determination method was as follows:
• Preformed F-actin filaments (#AKF99-B, Cytoskeleton) were diluted to 1 mg/mL with Reaction buffer (25 mM Tris-HCL, pH 7.5+35 mM KCl+0.1 mM EGTA+1 mM MgCl2); • Rabbit myosin (#MYO2-A, Cytoskeleton) was diluted to 0.1 mg/mL with Resuspension buffer (15 mM Tris-HCL, PH7.5+0.2 M KCl+1 mM MgCl2); • ATP (#BSA04-001, Cytoskeleton) was diluted to 3 mM working solution with 15 mM Tris-HCL (PH=7.5);
• adding 13 μL reaction buffer+12 μL F-actin to actin control wells; • adding 10 μL reaction buffer+12 μL F-actin+3 μL myosin II to positive control wells; • adding 10 μL of compound working solution+12 μL of F-actin+3 μL of myosin II to the compound wells; • adding 5 μL of ATP working solution to all test wells to start the reaction, and simultaneously adding a sample to the Pi standard wells according to the instruction (#BK054, Cytoskeleton); • gently mixing and accurately incubating at 37° C. for 60 min; • adding 70 μL of CytoPhos Reagent (#BK054, Cytoskeleton) to each well and incubating for 10 min to stop the reaction.
• the OD value of each well was detected at 650 nm using the endpoint method. The standard curve was fitted according to Pi concentration and OD value, and the Pi concentration of each test well was obtained. Inhibition (%)=(Pi positive control well-Pi test well)/Pi positive control well*100%. The Inhibition %-[…] curve was fitted with Graphpad Prism 8 software, and IC50 was calculated.

[2] = target: T1, CYP1A2 (Homo sapiens, UniProt P05177); experiment: CYP450 enzyme inhibition, human liver microsomes, CYP1A2; format: in vitro ADME
T1 construct: incubated with human liver microsomes and test compounds of different concentrations; from tissue; host or cells: human liver microsomes
T1 sequence (P05177 1-516): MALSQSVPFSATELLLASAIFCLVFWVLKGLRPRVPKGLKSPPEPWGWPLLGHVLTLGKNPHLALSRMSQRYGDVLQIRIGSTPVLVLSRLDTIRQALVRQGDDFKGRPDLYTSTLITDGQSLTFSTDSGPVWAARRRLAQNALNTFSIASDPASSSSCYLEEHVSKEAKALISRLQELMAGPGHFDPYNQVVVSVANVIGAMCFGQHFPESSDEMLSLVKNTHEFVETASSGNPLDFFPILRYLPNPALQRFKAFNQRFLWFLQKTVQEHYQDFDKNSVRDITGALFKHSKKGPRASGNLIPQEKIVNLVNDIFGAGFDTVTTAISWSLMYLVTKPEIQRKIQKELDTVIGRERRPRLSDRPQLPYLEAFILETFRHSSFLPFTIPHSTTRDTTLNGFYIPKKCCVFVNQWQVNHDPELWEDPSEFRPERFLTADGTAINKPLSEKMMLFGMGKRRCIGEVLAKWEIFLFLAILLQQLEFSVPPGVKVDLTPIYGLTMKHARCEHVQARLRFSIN
Protocol: (§1) The purpose of this study was to evaluate the effect of the test compound on the activity of five isoenzymes (CYP1A2, CYP2C9, CYP2C19, CYP2D6 and CYP3A4) of human liver microsomal cytochrome P450 (CYP) by using an in vitro testing system. The specific probe substrates of CYP450 isoenzymes were incubated with human liver microsomes and test compounds of different concentrations, and reduced nicotinamide adenine dinucleotide phosphate (NADPH) was added to initiate the reaction. After the completion of the reaction, the sample was treated and liquid chromatography-tandem mass spectrometry (LC-MS/MS) was used to quantitatively detect metabolites produced by specific substrates, changes in CYP enzyme activity were determined, and IC50 value was calculated to evaluate the inhibitory potential of the test compound on each CYP enzyme subtype.

[3] = target: T2, CYP2C9 (Homo sapiens, UniProt P11712); experiment: CYP450 enzyme inhibition, human liver microsomes, CYP2C9; format: in vitro ADME
T2 construct: incubated with human liver microsomes and test compounds of different concentrations; from tissue; host or cells: human liver microsomes
Protocol: as §1

[4] = target: T3, CYP2C19 (Homo sapiens, UniProt P33261); experiment: CYP450 enzyme inhibition, human liver microsomes, CYP2C19; format: in vitro ADME
T3 construct: incubated with human liver microsomes and test compounds of different concentrations; from tissue; host or cells: human liver microsomes
Protocol: as §1

[5] = target: T4, CYP2D6 (Homo sapiens, UniProt P10635); experiment: CYP450 enzyme inhibition, human liver microsomes, CYP2D6; format: in vitro ADME
T4 construct: incubated with human liver microsomes and test compounds of different concentrations; from tissue; host or cells: human liver microsomes
Protocol: as §1

[6] = target: T5, CYP3A4 (Homo sapiens, UniProt P08684); experiment: CYP450 enzyme inhibition, human liver microsomes, CYP3A4; format: in vitro ADME
T5 construct: incubated with human liver microsomes and test compounds of different concentrations; from tissue; host or cells: human liver microsomes
Protocol: as §1

[7] = target: T6, smooth muscle myosin S1 (Gallus gallus, UniProt P10587); experiment: Inhibition of hydrolysis of ATP by smooth muscle myosin S1 fragments; format: biochemical; conditions: 100 μM compound
T6 construct: purchased Cytoskeleton #CS-MYS05
Protocol: The purpose of this test was to evaluate the ability of compounds to inhibit the hydrolysis of ATP by smooth muscle myosin Si fragments. The determination method was as follows: • 1. Solution formulation • F-actin polymer: Cardiac Actin powder (#CS-AD99, Cytoskeleton) was dissolved in a buffer (5 mM Pipes-KOH solution, PH=7.0, containing 100 μM ATP and 500 μM DTT) to form a 2 mg/mL solution and the solution was left at room temperature for 30 min; then 2 mM MgCl2 and 2 mM EGTA were added and the obtained system was left at room temperature for 40 min; • Smooth muscle SI fragment (#CS-MYS05, Cytoskeleton) was diluted with a pre-cooled PM12 buffer containing 1 mM DTT (12 mM Pipes-KOH solution, PH=7.0, containing 2 mM MgCl2) to form a 0.7 mg/mL solution; • ATP (#BSA04-001, Cytoskeleton) was diluted to 5 mM working solution with 15 mM Tris-HCL (PH=7.5); • 2. […] Experimental steps: • adding 10 μL of compound working solution+6 μL of F-actin polymer+4 μL of Smooth muscle Si fragment solution to the compound wells; • adding 10 μL of PM12 buffer containing DMSO+6 μL of F-actin polymer+4 μL of Smooth muscle S1 fragment solution to positive control wells; • adding 10 μL of PM12 buffer containing DMSO+6 μL of F-actin polymer+4 μL of PM12 buffer to negative control wells; • adding […] of 5 mM ATP working solution to all test wells to start the reaction, gently mixing and incubating at 37° C. for 20 min; • after the reaction was completed, taking 6 μLL of reaction liquid, adding 24 μL of PM12 buffer for 5-fold dilution, then detecting the content of the product Pi with a phosphate kit (#BK054, Cytoskeleton); • adding a standard according to the instructions, adding 70 μL of CytoPhos Reagent (#BK054, Cytoskeleton) to all wells and incubating at room temperature for 10 min before detection. • 4. Detection: • the OD value of each well was detected at 650 nm. The standard curve was fitted according to Pi standard concentration and OD value, and the Pi concentration of each test well was obtained. Inhibition (%)=(positive control well−test well)/positive control well*100%.

[8] = Pharmacokinetic experiment in mouse muscle tissue (tibialis anterior / plasma); format: in vivo, C57 mice; conditions: male, C57, tibialis anterior muscle / plasma, oral, intragastric 10 mg/kg, read-out: Ratio = Tibialis anterior Conc./Plasma Conc.
Protocol: 1. Experimental animals: Male C57 mice, 22-25 g, 6 mice/compound. Purchased from Chengdu Ddossy Experimental Animals Co., Ltd.
2. Experimental design: On the day of the experiment, C57 mice were randomly grouped according to their body weight. The animals were fasted with water available for 12 to 14 h one day before the administration and were fed 4 h after the administration. Administration was performed as per Table 10.1.

[9] = target: T7, cardiac myosin SII (Bos taurus, UniProt Q9BE39); experiment: Inhibition of hydrolysis of ATP by cardiac myosin SII; format: biochemical; conditions: 100 μM compound
T7 construct: purchased Cytoskeleton #MYO3-A
Protocol: The purpose of this test was to evaluate the ability of compounds to inhibit the hydrolysis of ATP by cardiac myosin SII. The determination method was as follows: • 1. Solution formulation: • Preformed F-actin filaments (#AKF99-B, Cytoskeleton) were diluted to 1 mg/mL with Reaction buffer (15 mM Tris-HCL. PH7.5+10 mM KCl+0.1 mM EGTA+2 mM MgCl2); • Cardiac Muscle myosin (#MYO3-A, Cytoskeleton) was diluted to 1 mg/mL with Resuspension buffer (15 mM Tris-HCL, PH7.5+0.2M KCl+1 mM MgCl2); • ATP (#BSA04-001, Cytoskeleton) was diluted to 3 mM working solution with 15 mM Tris-HCL (PH=7.5); • 2. Formulation of working solution of compounds: the final compound concentration was 100 μM • 3. Experimental steps: • adding 10 μL of compound working solution+12 μL of Preformed F-actin filaments+3 μL of Cardiac Muscle myosin to the compound wells; • adding 10 μL of reaction buffer containing DMSO+12 μL Preformed F-actin filaments +3 μL Cardiac Muscle myosin to positive control wells; • adding 10 μL of reaction buffer containing DMSO+12 μL Preformed F-actin filaments +3 μL Resuspension buffer to negative control wells; • adding 5 μL of 3 mM ATP working solution to all test wells to start the reaction, gently mixing and incubating at 37° C. for 2 h; • after the reaction was completed, taking 6 μL of reaction liquid, adding 24 μL of reaction buffer for 5-fold dilution, then detecting the content of the product Pi with a phosphate kit (#BK054, Cytoskeleton); • adding a sample to Pi standard wells according to the instructions; • adding 70 μL of CytoPhos Reagent (#BK054, Cytoskeleton) to each well and incubating at room temperature for 10 min before detection. • 4. Detection: • the OD value of each well was detected at 650 nm. The standard curve was fitted according to Pi standard concentration and OD value, and the Pi concentration of each test well was obtained. Inhibition (%)=(positive control well−test well)/positive control well*100%.

[10] = inhibition of hydrolysis of ATP, class symbols, read-out: Rabbit skeletal muscle myosin (IC50)
[11] = read-out: IC50 for inhibition of hydrolysis of ATP by rabbit skeletal muscle myosin

T4 sequence (P10635 whole entry): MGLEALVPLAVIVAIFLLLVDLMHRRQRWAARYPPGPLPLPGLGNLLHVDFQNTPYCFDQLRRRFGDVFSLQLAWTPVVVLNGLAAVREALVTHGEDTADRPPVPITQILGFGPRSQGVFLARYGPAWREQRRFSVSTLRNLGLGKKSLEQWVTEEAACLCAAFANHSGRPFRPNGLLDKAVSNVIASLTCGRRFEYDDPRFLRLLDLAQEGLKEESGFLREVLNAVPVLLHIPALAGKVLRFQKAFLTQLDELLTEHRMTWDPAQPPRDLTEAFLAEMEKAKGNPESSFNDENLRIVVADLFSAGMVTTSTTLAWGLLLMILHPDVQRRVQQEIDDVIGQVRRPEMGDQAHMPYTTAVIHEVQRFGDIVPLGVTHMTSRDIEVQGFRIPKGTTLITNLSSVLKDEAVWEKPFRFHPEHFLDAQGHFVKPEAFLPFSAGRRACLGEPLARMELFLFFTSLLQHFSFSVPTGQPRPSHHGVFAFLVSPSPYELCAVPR
T5 sequence (P08684 whole entry): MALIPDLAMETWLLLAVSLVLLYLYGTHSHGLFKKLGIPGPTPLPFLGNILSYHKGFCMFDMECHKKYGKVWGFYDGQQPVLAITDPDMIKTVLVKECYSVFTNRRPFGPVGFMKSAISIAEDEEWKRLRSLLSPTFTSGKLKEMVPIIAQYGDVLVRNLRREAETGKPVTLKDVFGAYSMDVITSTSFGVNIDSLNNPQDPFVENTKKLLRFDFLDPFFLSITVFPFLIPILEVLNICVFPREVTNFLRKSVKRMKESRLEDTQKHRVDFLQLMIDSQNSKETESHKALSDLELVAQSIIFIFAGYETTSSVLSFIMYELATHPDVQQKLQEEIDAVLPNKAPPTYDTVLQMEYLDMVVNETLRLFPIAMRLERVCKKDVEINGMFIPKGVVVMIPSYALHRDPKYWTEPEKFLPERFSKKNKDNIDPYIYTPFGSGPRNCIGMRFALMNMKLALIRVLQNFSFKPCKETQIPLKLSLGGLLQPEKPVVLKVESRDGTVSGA
T7 sequence (Q9BE39 whole entry): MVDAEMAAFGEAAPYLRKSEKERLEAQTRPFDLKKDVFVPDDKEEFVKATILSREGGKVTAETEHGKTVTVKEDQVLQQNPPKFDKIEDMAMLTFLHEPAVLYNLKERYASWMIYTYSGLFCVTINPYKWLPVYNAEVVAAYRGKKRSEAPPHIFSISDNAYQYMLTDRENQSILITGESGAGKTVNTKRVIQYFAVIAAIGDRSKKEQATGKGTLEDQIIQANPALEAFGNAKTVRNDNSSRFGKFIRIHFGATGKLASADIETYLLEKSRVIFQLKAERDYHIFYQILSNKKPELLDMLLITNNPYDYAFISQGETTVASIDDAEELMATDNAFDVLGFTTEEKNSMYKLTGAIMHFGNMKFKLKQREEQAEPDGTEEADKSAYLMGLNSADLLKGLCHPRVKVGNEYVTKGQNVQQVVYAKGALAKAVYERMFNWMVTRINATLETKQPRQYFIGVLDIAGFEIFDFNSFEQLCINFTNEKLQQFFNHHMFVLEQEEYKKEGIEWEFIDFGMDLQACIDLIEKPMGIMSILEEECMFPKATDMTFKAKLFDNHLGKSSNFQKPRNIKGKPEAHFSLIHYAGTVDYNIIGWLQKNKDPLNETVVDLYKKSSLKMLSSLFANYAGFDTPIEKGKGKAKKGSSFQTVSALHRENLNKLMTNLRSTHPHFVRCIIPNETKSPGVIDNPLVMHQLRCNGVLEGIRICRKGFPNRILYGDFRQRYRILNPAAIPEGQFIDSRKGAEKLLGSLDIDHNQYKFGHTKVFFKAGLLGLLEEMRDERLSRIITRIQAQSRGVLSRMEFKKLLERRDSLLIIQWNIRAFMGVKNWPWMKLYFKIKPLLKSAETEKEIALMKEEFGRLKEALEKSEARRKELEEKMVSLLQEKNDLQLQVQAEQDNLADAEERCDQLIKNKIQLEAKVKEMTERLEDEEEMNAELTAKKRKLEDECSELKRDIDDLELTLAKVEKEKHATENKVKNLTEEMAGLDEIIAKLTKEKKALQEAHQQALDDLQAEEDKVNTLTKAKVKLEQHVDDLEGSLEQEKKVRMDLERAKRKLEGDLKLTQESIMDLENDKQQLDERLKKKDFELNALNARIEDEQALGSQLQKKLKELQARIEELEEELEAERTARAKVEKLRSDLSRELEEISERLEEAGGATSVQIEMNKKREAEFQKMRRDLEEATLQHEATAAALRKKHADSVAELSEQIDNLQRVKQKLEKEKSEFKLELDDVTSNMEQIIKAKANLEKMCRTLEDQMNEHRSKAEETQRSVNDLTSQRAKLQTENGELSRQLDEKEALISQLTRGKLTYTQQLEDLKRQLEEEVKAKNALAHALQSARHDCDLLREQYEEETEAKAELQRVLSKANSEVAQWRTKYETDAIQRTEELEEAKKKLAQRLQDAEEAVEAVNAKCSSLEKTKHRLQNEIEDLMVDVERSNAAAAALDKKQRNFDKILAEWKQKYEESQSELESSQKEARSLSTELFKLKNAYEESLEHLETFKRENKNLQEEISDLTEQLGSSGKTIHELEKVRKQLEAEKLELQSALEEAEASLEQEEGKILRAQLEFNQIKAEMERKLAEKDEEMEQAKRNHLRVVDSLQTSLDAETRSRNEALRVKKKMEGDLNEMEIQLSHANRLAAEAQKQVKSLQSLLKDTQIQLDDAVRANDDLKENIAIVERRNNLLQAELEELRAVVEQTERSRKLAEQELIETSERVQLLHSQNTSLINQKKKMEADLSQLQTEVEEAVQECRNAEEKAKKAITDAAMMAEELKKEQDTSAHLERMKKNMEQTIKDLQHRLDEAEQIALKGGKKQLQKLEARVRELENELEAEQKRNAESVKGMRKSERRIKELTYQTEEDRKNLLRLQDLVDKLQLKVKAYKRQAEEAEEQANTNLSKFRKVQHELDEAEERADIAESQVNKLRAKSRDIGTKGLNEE
T7 sequence (P85100 whole entry partner): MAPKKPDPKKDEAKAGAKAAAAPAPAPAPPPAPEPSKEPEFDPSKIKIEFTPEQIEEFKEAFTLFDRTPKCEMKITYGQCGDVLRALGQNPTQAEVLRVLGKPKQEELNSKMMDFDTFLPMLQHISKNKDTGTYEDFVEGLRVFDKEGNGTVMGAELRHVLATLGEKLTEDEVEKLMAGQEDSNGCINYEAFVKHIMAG
T7 sequence (Q3SZE5 whole entry partner): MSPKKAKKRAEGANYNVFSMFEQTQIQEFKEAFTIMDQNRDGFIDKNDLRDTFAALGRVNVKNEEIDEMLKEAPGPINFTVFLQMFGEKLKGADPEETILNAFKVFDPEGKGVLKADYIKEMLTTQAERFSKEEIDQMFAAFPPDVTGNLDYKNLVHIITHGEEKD
T6 sequence (P10587 84-789 limits assumed): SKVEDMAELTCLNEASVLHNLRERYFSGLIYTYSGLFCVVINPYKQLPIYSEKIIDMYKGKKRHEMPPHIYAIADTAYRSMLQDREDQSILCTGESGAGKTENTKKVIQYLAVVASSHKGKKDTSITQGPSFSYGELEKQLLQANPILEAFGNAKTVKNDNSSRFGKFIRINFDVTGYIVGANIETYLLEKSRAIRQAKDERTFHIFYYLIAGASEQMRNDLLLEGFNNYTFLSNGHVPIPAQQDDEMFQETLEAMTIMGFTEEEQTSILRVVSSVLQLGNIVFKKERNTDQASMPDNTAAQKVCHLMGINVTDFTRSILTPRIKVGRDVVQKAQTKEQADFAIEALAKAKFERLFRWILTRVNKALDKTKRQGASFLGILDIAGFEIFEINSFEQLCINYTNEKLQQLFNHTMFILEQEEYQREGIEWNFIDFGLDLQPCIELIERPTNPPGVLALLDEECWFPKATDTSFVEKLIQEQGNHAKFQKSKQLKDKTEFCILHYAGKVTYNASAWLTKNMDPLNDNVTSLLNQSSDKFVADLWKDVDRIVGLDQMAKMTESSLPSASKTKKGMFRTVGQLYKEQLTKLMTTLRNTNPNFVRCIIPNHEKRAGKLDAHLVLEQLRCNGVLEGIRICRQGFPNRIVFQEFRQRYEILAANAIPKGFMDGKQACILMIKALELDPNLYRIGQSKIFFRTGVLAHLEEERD
T6 sequence (P02607 whole entry partner, the tested form may be a part): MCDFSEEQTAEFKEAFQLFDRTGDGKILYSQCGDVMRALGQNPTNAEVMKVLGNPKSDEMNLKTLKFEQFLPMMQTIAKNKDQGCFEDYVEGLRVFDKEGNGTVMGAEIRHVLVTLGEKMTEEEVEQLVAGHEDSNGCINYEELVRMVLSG
T3 sequence (P33261 whole entry): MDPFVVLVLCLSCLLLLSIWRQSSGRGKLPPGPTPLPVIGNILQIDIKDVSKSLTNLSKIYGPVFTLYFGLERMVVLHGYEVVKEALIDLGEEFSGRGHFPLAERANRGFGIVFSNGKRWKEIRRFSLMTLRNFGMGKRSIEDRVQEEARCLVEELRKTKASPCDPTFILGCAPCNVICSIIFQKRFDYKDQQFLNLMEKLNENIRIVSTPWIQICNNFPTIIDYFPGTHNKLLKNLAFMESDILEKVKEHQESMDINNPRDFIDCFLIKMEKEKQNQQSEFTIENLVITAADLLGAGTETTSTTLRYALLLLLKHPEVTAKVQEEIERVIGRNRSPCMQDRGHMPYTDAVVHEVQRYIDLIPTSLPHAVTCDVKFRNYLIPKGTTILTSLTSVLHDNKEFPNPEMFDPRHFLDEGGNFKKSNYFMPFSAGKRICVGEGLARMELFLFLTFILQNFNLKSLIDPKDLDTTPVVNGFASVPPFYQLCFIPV

Row | IC50 [1, 10] [µM] | IC50 [1, 11] [µM] | IC50 [2] [µM] | IC50 [3] [µM] | IC50 [4] [µM] | IC50 [5] [µM] | IC50 [6] [µM] | inhibition at 100 µM [7] [%] | Kp at 6 h [8] | Kp at 24 h [8] | inhibition at 100 µM [9] [%] | Compound
1 | < 2.5 | 0.9 | > 30 | > 30 | > 30 | > 30 | > 30 |  |  |  |  | O=C1CCc2c(Cl)cc(Cn3nc(-c4cnc(C5CC5)nc4)ccc3=O)cc21 [Compound 170]
2 | < 2.5 | 0.56 | > 30 | > 30 | > 30 | > 30 | > 30 | 23.6 |  |  |  | O=C1Cc2cc(Cn3nc(-c4cnc(OCC(F)(F)F)nc4)ccc3=O)ccc21 [Compound 72]
3 | < 2.5 | 0.5 | > 30 | > 30 | > 30 | > 30 | > 30 | -12 | 73.3 | 96.7 |  | O=C1CCc2c(F)cc(Cn3nc(-c4cnc(OCC(F)(F)F)nc4)ccc3=O)cc21 [Compound 153]
4 | < 2.5 |  | > 30 | > 30 | > 30 | > 30 | > 30 |  |  |  |  | O=C1CCc2c1cc(Cn1nc(-c3cnc(OCC(F)(F)F)nc3)ccc1=O)cc2C(F)F [Compound 176]
5 | < 2.5 |  | > 30 | > 30 | > 30 | > 30 | > 30 | 14 |  |  |  | O=C1CCc2c(F)cc(Cn3nc(-c4cnc(O[C@@H]5CCOC5)nc4)ccc3=O)cc21 [Compound 163]
6 | < 2.5 | 1 | > 30 | > 30 | > 30 | > 30 | > 30 |  | 67 | 129 |  | O=C1CCc2c(Cl)cc(Cn3nc(-c4cnc(O[C@H]5CCOC5)nc4)ccc3=O)cc21 [Compound 172]
7 | < 2.5 | 0.2 | > 30 | > 30 | > 30 | > 30 | > 30 |  |  |  |  | O=c1ccc(-c2cnc(O[C@H]3CCOC3)nc2)nn1Cc1ccc2c(c1)CC2 [Compound 106]
8 | < 2.5 | 0.6 |  |  |  |  |  | 6 | 63.5 | 85.5 | 6 | CC(F)(F)COc1ncc(-c2ccc(=O)n(Cc3ccc4c(c3)C(=O)CC4)n2)cn1 [Compound 139]
9 | < 2.5 | 0.8 | > 30 | > 30 | > 30 | > 30 | > 30 |  |  |  |  | Cc1cc(Cn2nc(-c3cnc(OCC(F)(F)F)nc3)ccc2=O)cc2c1CCC2=O [Compound 169]
10 | < 2.5 | 0.9 | > 30 | > 30 | > 30 | > 30 | > 30 |  | 90.1 | 161 |  | O=C1CCc2c(Cl)cc(Cn3nc(-c4cnc(O[C@@H]5CCOC5)nc4)ccc3=O)cc21 [Compound 171]
11 | < 2.5 |  |  |  |  |  |  | -9 |  |  | 2 | O=c1cc2c(nn1Cc1ccc3c(c1)CC3)-c1cnc(Oc3cncc(F)c3)nc1CC2 [Compound 112]
12 | < 2.5 |  |  |  |  |  |  | -13 |  |  | 0 | O=c1ccc(-c2cnc(OCC3(F)CCC3)nc2)nn1Cc1ccc2c(c1)CCC2 [Compound 113]

— patent US20260217683A1, “PYRIDAZINONE HETEROCYCLIC COMPOUND MYOSIN II INHIBITOR AND USE THEREOF” (Xizang Haisco Pharmaceutical Co., Ltd., priority 2023, published 2026)
